In the NIST ThermoML archive (doi:10.1021/je7004374):

Experiments:
[1] = refractive index (Na D-line) (dimensionless); details: 298.15 K; 101.33 kPa; Liquid; Standard Abbe refractometry
[2] = Liquid; for speed of sound: Sing-around technique in a fixed-path interferometer

OCCCO [propan-1,3-diol]
Details | refractive index
[1] | 1.438

[2]
Details | mass density [kg/m3] | speed of sound [m/s]
283.16 K, 101.33 kPa | 1059.09 | –
288.15 K, 101.33 kPa | 1056 | –
292.88 K, 30390 kPa | – | 1721.7
292.89 K, 15200 kPa | – | 1681.2
292.89 K, 45590 kPa | – | 1760.3
292.89 K, 60790 kPa | – | 1797
292.89 K, 75990 kPa | – | 1832.2
292.89 K, 91180 kPa | – | 1865.9
292.89 K, 101320 kPa | – | 1887.8
292.91 K, 100 kPa | – | 1636.5
293.15 K, 100 kPa | 1052.91 | –
293.15 K, 101.33 kPa | – | 1636
293.15 K, 10000 kPa | 1057 | –
293.15 K, 20000 kPa | 1060.96 | –
293.15 K, 30000 kPa | 1064.8 | –
293.15 K, 40000 kPa | 1068.51 | –
293.15 K, 50000 kPa | 1072.11 | –
293.15 K, 60000 kPa | 1075.61 | –
293.15 K, 70000 kPa | 1079.02 | –
293.15 K, 80000 kPa | 1082.34 | –
293.15 K, 90000 kPa | 1085.57 | –
293.15 K, 100000 kPa | 1088.73 | –
293.16 K, 101.33 kPa | 1052.89 | –
298.15 K, 100 kPa | 1049.81 | –
298.15 K, 101.33 kPa | 1049.78 | 1624.5
298.15 K, 10000 kPa | 1053.95 | –
298.15 K, 20000 kPa | 1057.97 | –
298.15 K, 30000 kPa | 1061.86 | –
298.15 K, 40000 kPa | 1065.62 | –
298.15 K, 50000 kPa | 1069.27 | –
298.15 K, 60000 kPa | 1072.82 | –
298.15 K, 70000 kPa | 1076.26 | –
298.15 K, 80000 kPa | 1079.62 | –
298.15 K, 90000 kPa | 1082.89 | –
298.15 K, 100000 kPa | 1086.09 | –
298.16 K, 75990 kPa | – | 1821.4
298.16 K, 91180 kPa | – | 1855.4
298.16 K, 101320 kPa | – | 1877.2
298.17 K, 100 kPa | – | 1624.5
298.17 K, 15200 kPa | – | 1668.7
298.17 K, 30390 kPa | – | 1709.9
298.17 K, 45590 kPa | – | 1748.8
298.17 K, 60790 kPa | – | 1786
303.14 K, 101320 kPa | – | 1868
303.15 K, 100 kPa | 1046.7 | 1613.2
303.15 K, 101.33 kPa | – | 1613.2
303.15 K, 10000 kPa | 1050.89 | –
303.15 K, 20000 kPa | 1054.96 | –
303.15 K, 30000 kPa | 1058.9 | –
303.15 K, 40000 kPa | 1062.72 | –
303.15 K, 45590 kPa | – | 1738.6
303.15 K, 50000 kPa | 1066.41 | –
303.15 K, 60000 kPa | 1070 | –
303.15 K, 60790 kPa | – | 1776
303.15 K, 70000 kPa | 1073.49 | –
303.15 K, 75990 kPa | – | 1811.7
303.15 K, 80000 kPa | 1076.89 | –
303.15 K, 90000 kPa | 1080.2 | –
303.15 K, 91180 kPa | – | 1845.8
303.15 K, 100000 kPa | 1083.43 | –
303.16 K, 101.33 kPa | 1046.65 | –
303.16 K, 15200 kPa | – | 1657.6
303.16 K, 30390 kPa | – | 1699
308.13 K, 100 kPa | – | 1601.9
308.15 K, 100 kPa | 1043.56 | –
308.15 K, 101.33 kPa | – | 1601.8
